ChEMBL document CHEMBL1614632, “Trend analysis of a database of intravenous pharmacokinetic parameters in humans for 670 drug compounds” (Drug Metab Dispos, 2008)

Legend:
[1] = clinical; settings: human, in vivo, iv, CL
[2] = clinical; settings: human, in vivo, iv, t1/2
[3] = clinical; settings: human, in vivo, iv, Vdss
[4] = clinical; settings: human, in vivo, iv

Structure (SMILES)	clearance [1] [L/h/kg]	half-life [2] [h]	Vd [3] [L/kg]	MRT [4] [h]
CCCCc1nc(Cl)c(CO)n1Cc1ccc(-c2ccccc2-c2nn[nH]n2)cc1 [LOSARTAN]	0.492	1.8	0.37	0.75
C=CC[C@@H]1/C=C(\C)C[C@H](C)C[C@H](OC)[C@H]2O[C@@](O)(C(=O)C(=O)N3CCCC[C@H]3C(=O)O[C@H](/C(C)=C/[C@@H]3CC[C@@H](O)[C@H](OC)C3)[C@H](C)[C@@H](O)CC1=O)[C@H](C)C[C@@H]2OC [TACROLIMUS ANHYDROUS]	0.042	26	1.2	27
CN[C@H](CC(C)C)C(=O)N[C@H]1C(=O)N[C@@H](CC(N)=O)C(=O)N[C@H]2C(=O)N[C@H]3C(=O)N[C@H](C(=O)N[C@H](C(=O)O)c4cc(O)cc(O)c4-c4cc3ccc4O)[C@H](O)c3ccc(c(Cl)c3)Oc3cc2cc(c3O[C@@H]2O[C@H](CO)[C@@H](O)[C@H](O)[C@H]2O[C@H]2C[C@](C)(N)[C@H](O)[C@H](C)O2)Oc2ccc(cc2Cl)[C@H]1O [VANCOMYCIN]	0.078	6.5	0.54	6.9
CC(CC(c1ccccc1)c1ccccc1)NC(C)(C)C (configuration not stated) [TERODILINE]	0.066	56	5.1	81
O=C(O)[C@@H]1C[C@@H](C2CCCCC2)CN1C(=O)CP(=O)(O)CCCCc1ccccc1 [FOSINOPRILAT]	0.0192	9.4	0.13	6.8
NS(=O)(=O)c1cc(C2(O)NC(=O)c3ccccc32)ccc1Cl (configuration not stated) [CHLORTHALIDONE]	0.09	36	3.9	43
Cc1ncc([N+](=O)[O-])n1CCO [METRONIDAZOLE]	0.051	7.1	0.4	7.8
COc1cccc(C2(O)CCCCC2CN(C)C)c1 (configuration not stated) [TRAMADOL]	0.39	5.8	2.8	7.2
COc1cc(OC)c(C(=O)CCCN2CCCC2)c(OC)c1 [BUFLOMEDIL]	0.336	3.3	1.3	3.9
CC(C)(C)NC(=O)[C@H]1CC[C@H]2[C@@H]3CC=C4C=C(C(=O)O)CC[C@]4(C)[C@H]3CC[C@]12C [EPRISTERIDE]	0.0198	27	0.54	27
COc1cc2c(cc1OC)CN(c1cc(N)c3cc(OC)c(OC)cc3n1)CC2 [ABANOQUIL]	0.84	5.9	6.3	7.6
CN(C)CCCN1c2ccccc2Sc2ccc(Cl)cc21 [CHLORPROMAZINE]	0.96	11	10	10
NS(=O)(=O)c1cc2c(cc1C(F)(F)F)NCNS2(=O)=O [HYDROFLUMETHIAZIDE]	0.582	5.2	2.2	3.8
CC1(C)S[C@@H]2[C@H](NC(=O)[C@H](N)c3ccc(O)cc3)C(=O)N2[C@H]1C(=O)O [AMOXICILLIN]	0.198	1.1	0.25	1.3
C[C@H](/C=C/[C@H](C)C(C)(C)O)[C@H]1CC[C@H]2/C(=C/C=C3C[C@@H](O)C[C@H](O)C3)CCC[C@]12C [PARICALCITOL]	0.0534	5.3	0.41	7.7
Nc1ccn([C@@H]2CO[C@H](CO)O2)c(=O)n1 [TROXACITABINE]	0.144	82	1	6.9
O=C(NCCN1CCOCC1)c1ccc(Cl)cc1 [MOCLOBEMIDE]	0.6	1.5	1.1	1.8
OC(CCN1CCCC1)(c1ccccc1)C1CCCCC1 (configuration not stated) [PROCYCLIDINE]	0.0516	12	0.74	14
Cc1cc(-n2cccc2)c(S(C)(=O)=O)cc1C(=O)NC(=N)N [ENIPORIDE]	0.492	2.2	1.1	2.3

Structure (SMILES)	clearance [1] [L/h/kg]	half-life [2] [h]	Vd [3] [L/kg]	MRT [4] [h]
CN(C(=O)c1c(O)c2ccccc2n(C)c1=O)c1ccccc1 [ROQUINIMEX]	0.00492	31	0.21	43
CO[C@H]1/C=C/O[C@@]2(C)Oc3c(C)c(O)c4c(c3C2=O)C2=NC3(CCN(CC(C)C)CC3)NC2=C(NC(=O)/C(C)=C\C=C\[C@H](C)[C@H](O)[C@@H](C)[C@@H](O)[C@@H](C)[C@H](OC(C)=O)[C@@H]1C)C4=O [RIFABUTIN]	0.144	37	9.3	65
CNS(=O)(=O)Cc1ccc2[nH]cc(CCN(C)C)c2c1	1.14	1.7	1.7	1.5
O=C(O)c1cc(/N=N/c2ccc(O)c(C(=O)O)c2)ccc1O [OLSALAZINE]	0.072	0.9	0.07	0.97
CCC(CC)O[C@@H]1C=C(C(=O)O)C[C@H](N)[C@H]1NC(C)=O [OSELTAMIVIR CARBOXYLATE]	0.288	1.8	0.37	1.3
CN[C@@H]1[C@H](O)[C@H](NC)[C@H]2O[C@@]3(O)C(=O)C[C@@H](C)O[C@H]3O[C@@H]2[C@H]1O [SPECTINOMYCIN]	0.0594	1.8	0.13	2.2
Cc1nnc2n1-c1ccc(Cl)cc1C(c1ccccc1)=NC2 [ALPRAZOLAM]	0.0444	12	0.8	18
Cc1cccc(C)c1NC(=O)C(C)N (configuration not stated) [TOCAINIDE]	0.132	12	1.8	14
COc1nc(N)nc2c1ncn2[C@@H]1O[C@H](CO)[C@@H](O)[C@@H]1O [NELARABINE]	4.86	0.5	4.9	1
COc1ccc2[nH]c([S+]([O-])Cc3ncc(C)c(OC)c3C)nc2c1 (configuration not stated) [OMEPRAZOLE]	0.504	0.58	0.24	0.48
COc1ccc2c3c1O[C@H]1C[C@@H](O)C=C[C@@]31CCN(C)C2 [GALANTAMINE]	0.336	5.3	2.3	6.8
COc1cc2c(cc1O)CCN[C@]21CS[C@@H]2c3c(OC(C)=O)c(C)c4c(c3[C@H](COC1=O)N1[C@@H]2[C@H]2c3c(cc(C)c(OC)c3O)C[C@@H]([C@@H]1O)N2C)OCO4 [TRABECTEDIN]	0.72	44	25	35
CCOc1ccc(/C=C2\NCCc3cc(OCC)c(OCC)cc32)cc1OCC [DROTAVERINE]	0.21	9.3	1.9	9
CN(C)CCc1c[nH]c2ccc(C[C@H]3COC(=O)N3)cc12 [ZOLMITRIPTAN]	0.402	3.6	1.8	4.6
CCCN(CCC)S(=O)(=O)c1ccc(C(=O)O)cc1 [PROBENECID]	0.015	5.9	0.13	8.7
Cc1cc(=O)n(-c2ccccc2)n1C [ANTIPYRINE]	0.0384	12	0.77	20
CC(C)(C)NC[C@H](O)COc1nsnc1N1CCOCC1 [TIMOLOL]	0.51	2.2	1.5	3
CC(=O)CCCCn1c(=O)c2c(ncn2C)n(C)c1=O [PENTOXIFYLLINE]	2.34	1.2	1.8	0.77
C[C@@H]1C(=O)O[C@H]2C[C@@]34[C@H]5C[C@@H](C(C)(C)C)[C@]36[C@@H](OC(=O)[C@@H]6O)O[C@@]4(C(=O)O5)[C@]21O [GINKGOLIDE A]	0.138	3.8	0.62	4.6
